Test [1] concerns FGF-inducible Response Element (FiRE). As to the kind of experiment: pFiRE CAT reporter activation by growth factors in 3T3NIH cells. Particulars: pFiRE transfected 3T3NIH cells; 10 ng/ml growth factor (2 ng/ml TGF-β) or 5% FCS, 2 days. Type of test: cell-based, mouse. How it is done:
Each of these plasmids was transiently transfected into 3T3NIH cells, using the calcium phosphate precipitation method (Chen and Okayama, Mol. Cell Biol. 7:2745-2752 (1987)) as follows. For transient transfections NIH3T3 cells were plated at equal density on six-well plates (Falcon) two days before transfection. Plasmid DNA was transfected into cells by calcium phosphate method (Chen and Okayama, Mol. Cell Biol. 7:2745-2752 (1987)). A β-galactosidase expressing plasmid (pSV-β-galactosidase, Promega) was co-transfected with CAT constructs to monitor transfection efficiencies. Three parallel transfections were used in every assay. Directly after transfection growth factors were added, media change the next day and cells were harvested after two days. CAT activities were measured by liquid scintillation and β-galactosidase activities spectrophotometrically at 420 nm as described by Vihinen et al., J. Biol. Chem 268:17261-17269 (1993)). As a control, other samples of the cells transfected with each plasmid were treated with buffer without FGF-2 for the same time periods.
For the gene expression analysis the fragments of the syndecan-1 upstream region were subcloned from mouse genomic clones into the XbaI site of the pCATProm vector in which a mouse syndecan-1 promoter region (−1310 to +140) was fused to the CAT reporter gene (Vihinen et al., J. Biol. Chem. 271:12532-12541 (1996)). The pX-HIIICAT plasmid was prepared by cloning HindIII-XhoI promoter fragment (−2400 to +140 bp) into the promoterless pCAT basic vector (Promega). For pXSp1 and 2 plasmids, SphI fragments −11.4 to −10.5 kb and −10.5 to −9.4 kb, respectively) were deleted from pXb6CAT (−11.6 to −9.4 kb). Constructs pXS2, pXB3 and pXX1 were generated by ligating SphI-EarI/blunt (−10.5 to −10.1 kb), EarI/blunt fragment (−10.1 to −9.8 kb) and EarI/blunt-XbaI (−9.8 to −9.4 kb) from pXSpI into SphI-AccI/blunt, AccI/blunt or XbaI-SphIlblunt sites, respectively, into the pCATProm vector. Blunt ended fragments were made by T4 polymerase (Promega). For FiRE and FiREREV a PstI-StyI/blunt fragment was subcloned into PstI-EcoRV or PstI-SmaI sites of the pBluescript vector and then transfected to Xba-SphI sites in pCATProm vector. These constructs were then used to transient transfect NIH3T3 cells as described supra, and CAT activity was measured.
Effect of Various Growth Factors on Enhancer Activation in NIH3T3 Cells. Plasmid pFiRE was transfected into 3T3NIH cells as described, supra. The cells were starved in DMEM medium supplemented with 5% fetal calf serum to about 70% confluence. Fetal calf serum was then replaced with 2% carboxy-methyl-Sephadex eluted fetal calf serum (CMS) 12 hrs before adding the growth factors. Various growth factors in the same medium, 5% fetal calf serum (FCS) supplemented medium or a control containing the medium, without any added growth factors were incubated with the transfected cells for 2 days, and CAT activity was measured. The effect of 10 ng/ml of FGF-2, FGF-1, FGF-4, FGF-7 (KGF), EGF, IGF1, TGFα, IFNγ, and PDGF and 2 ng/ml TGF-β were tested. The human recombinant growth factors were purchased from Peprotech (FGF-1, -2, and -7), Boehringer (FGF-2) or from Calbiochem (PDGF) TGF-β was purchased from Sigma. The effect of the added growth factors and FCS on DNA synthesis was also tested by a 125-IdU incorporation assay. […] Radioactivity was measured using a gamma counter (Wallac).

The subject of a further test is 3T3NIH cells. Put plainly: 125-IdU incorporation (DNA synthesis) assay in 3T3NIH cells. Type of test: cell-based, mouse. Particulars: pFiRE transfected 3T3NIH cells; 10 ng/ml growth factor (2 ng/ml TGF-β) or 5% FCS. An excerpt: Effect of Various Growth Factors on Enhancer Activation in NIH3T3 Cells. Plasmid pFiRE was transfected into 3T3NIH cells as described, supra. The cells were starved in DMEM medium supplemented with 5% fetal calf serum to about 70% confluence. Fetal calf serum was then replaced with 2% carboxy-methyl-Sephadex eluted fetal calf serum (CMS) 12 hrs before adding the growth factors. Various growth factors in the same medium, 5% fetal calf serum (FCS) supplemented medium or a control containing the medium, without any added growth factors were incubated with the transfected cells for 2 days, and CAT activity was measured. The effect of 10 ng/ml of FGF-2, FGF-1, FGF-4, FGF-7 (KGF), EGF, IGF1, TGFα, IFNγ, and PDGF and 2 ng/ml TGF-β were tested. The human recombinant growth factors were purchased from Peprotech (FGF-1, -2, and -7), Boehringer (FGF-2) or from Calbiochem (PDGF) TGF-β was purchased from Sigma. The effect of the added growth factors and FCS on DNA synthesis was also tested by a 125-IdU incorporation assay. This cell proliferation assay was carried out by incubating cells for 4-6 hrs with 0.25 μCi/ml 5-[^125I]iodo-2′-deoxyuridine (IdU, Amersham), washed several times with PBS and solubilized in 1 M NaOH. Radioactivity was measured using a gamma counter (Wallac).

For test [2], the system named is FGF-inducible Response Element (FiRE). As to the kind of experiment: FiRE / Syn Prom CAT reporter in MCA3D keratinocytes. Format: cell-based. Particulars: MCA3D mouse keratinocytes transfected with FiRE construct. How it is done: The cells used for proximal promoter constructs were 3T3 NIH, S115 (either hormone-treated or not) and nMuMG cells. For enhancer constructs we used 3T3 NIH cells grown in 2% CMS medium and MCA 3D cells grown in Ham's medium. 3T3 NIH cells were also used to test the effect of growth factors in 2% CMS medium with 10 ng/ml FGF-2 and 2ng/ml TGFβ-1. MCA 3D cells were used to test the effect of 10 ng/ml KGF.
FiRE is Induced Selectively by FGF-7 in Keratinocytes. The ability of FiRE to enhance transcription was tested in the mouse keratinocyte cell line MCA3D (Kuliz-Martin et al., Carcinogenesis 4:1367-1377 (1983)). MCA3D cells were transfected as described supra for mouse NIH3T3 cells. Following transfection, the cells were treated with fetal calf serum, PDGF, FGF-1, FGF-2, and FGF-7 as described supra for the NIH3T3 cells.

Another test deals with syndecan-1 gene. As to the kind of experiment: Syndecan-1 mRNA quantification in 3T3NIH cells exposed to FGF-2. Type of test: cell-based, mouse. Particulars: TGF-β alone. An excerpt: Northern Blot—RNA was isolated from 3T3 and NMuMG cells using 4 M guanidine isothiocyanate and CsCl density centrifugation (Chirgwin et al., Biochemistry 18:5294-5299 (1979)). RNA samples were size-separated on a 1% agarose formaldehyde gel, transferred to a GeneScreen Plus™ membrane (New England Nuclear) and hybridized with a multi-prime (Amersham) labeled partial cDNA clone for mouse syndecan (PM-4) (Saunders et al., J. Cell Biol. 108:1547-1556 (1989)). After hybridization, the membrane was washed in 2×SSC and 1.0% SDS at 65° C. (high stringency conditions). For rehybridization with glyceraldehyde-3-phosphate-dehydrogenase (GAPDH; Fort et al., Nucleic Acid Res. 13:1431-1442 (1985)), the bound PM-4 probe was removed as recommended by the manufacturer of the filter (NEN).
Following incubation with FGF-2, syndecan MRNA was isolated and quantified. Control incubations without FGF-2 were also performed. Syndecan mRNA was isolated and quantified […] FGF-2 treatment following 6, 12, and 24 hr incubations. The quantification of syndecan mRNA production can be seen in FIG. 11a. GAPDH mRNA was used as a loading control. […] The enhancement appears to be maximal at about 6 hrs of FGF-2 incubation, and decreases thereafter. In the Figure, two individual exposures for each time point are presented.

Test [3] has as its system FGF-inducible Response Element (FiRE). Put plainly: FiRE CAT assay with AP-1 activating agents in stable 3T3NIH cells. Particulars: minimal promoter, agents known to activate AP-1. Type of test: cell-based, mouse. How it is done: FIG. 24. […] Different agents known to induce fos-jun complexes and activate AP-1 driven promoters, were tested for FiRE activation in CAT assay with the minimal promoter transferred in stable 3T3NIH cells in the presence of protein kinase C activator (TPA, 10 mm), protein phosphatase 1 and 2 inhibitors (DA and calycalin A), a cAMP activator (forskolin), or a tyrosine phosphatase inhibitor (orthovanadate).
Agents Activating AP-1 Are Not Sufficient for FiRE Activation. Since FiRE contains AP-1 transcription factors, whose activation is well characterized, we tested chemicals known to cause AP-1 dependent gene activation. These included the protein kinase C (PKC) activator 12-O-tetradecanoylphorpol-13-acetate (TPA), protein-phosphate-1 and -2 inhibitors okadaic acid and calyculin A, cAMP activator forskolin and tyrosine kinase phosphatase inhibitor orthovanadate (FIG. 24a).

The next test concerns MCF-7 cells. As to the kind of experiment: Growth behavior of MCF-7 cells under estrogen and toremifene. Format: cell-based, human. Particulars: MCF-7 cells exposed to estrogen, then toremifene. How it is done:
(§1) The steroid-responsive human breast cancer cell line MCF-7 was used to study the expression of human syndecan under different growth conditions regulated by estrogen and anti-estrogen. Cells were plated at a density of 1.2×10^6 cells/100 mm of plastic culture dish and grown as monolayer cultures in 10 ml per dish of phenol red-free DMEM medium with 5% dextran/charcoal treated fetal calf serum (DS-FCS), 2 mM L-glutamine and 3 μg/ml insulin. […] The cells were cultured for 6 days, and the media were changed every second day. For RNA extraction, cells were washed in situ with PBS and scraped from the plates in 4 M guanidine isothiocyanate.

For test [4], the system named is syndecan-1 expression in MCF-7 cells. As to the kind of experiment: Syndecan mRNA expression in MCF-7 cells under estrogen and toremifene. Particulars: MCF-7 cells exposed to estrogen, then anti-estrogen treatment. Type of test: cell-based, human. How it is done: as §1

“Also recorded” adds a separate entry of the source.

As to “IGF: growth factor IGF1 tested at 10 ng/ml”, in test [1], the “FiRE enhancer activation (CAT reporter activity)” value (“FiRE enhancer activation” for short) is reported as “no effect on enhancer activity”. In the test on 3T3NIH cells, the “DNA synthesis / cell proliferation (125-IdU incorporation)” value (shortened to “DNA synthesis / cell proliferation”) is “enhanced cell proliferation to a similar extent as FGF-2”.

Take “FGF-1: human recombinant growth factor, FGF family member”: the “FiRE enhancer activation” value in test [1] is given as “did not activate or suppress; also recorded: lower effect”. Besides, the FiRE activation result in test [2] is “failed to activate FiRE; also recorded: did not activate FiRE”. Besides, in the test with 3T3NIH cells, the “DNA synthesis / cell proliferation” value is “significant increase in DNA synthesis”. For “TGF-β: transforming growth factor beta; porcine TGFβ1”, the “FiRE enhancer activation” value in test [1] is “no significant enhancer activation”. Further, the “activation of the syndecan-1 gene” value in the test with syndecan-1 gene is “cannot activate the syndecan-1 gene”. Moreover, the “DNA synthesis / cell proliferation” value in the test on 3T3NIH cells was “significant increase in DNA synthesis”. Turning to PDGF, the “FiRE enhancer activation” value in test [1] is on record as “no significant enhancer activation; also recorded: no effect on enhancer activity”. Besides, the FiRE activation entry in test [2] is reported as “failed to activate FiRE; also recorded: did not activate FiRE”. Also, the “DNA synthesis / cell proliferation” value with 3T3NIH cells was “significant increase in DNA synthesis; also recorded: enhanced cell proliferation to a similar extent as FGF-2”. For `CCCCCCCCCCCCCC(=O)O[C@@H]1[C@@H](C)[C@@]2(O)[C@@H](C=C(CO)C[C@]3(O)C(=O)C(C)=C[C@@H]23)[C@H]2C(C)(C)[C@]12OC(C)=O` [TPA, 12-O-tetradecanoylphorpol-13-acetate], the “FiRE activation (CAT assay)” value in test [3] was “none of the other compounds known to induce immediate early genes fos and jun and AP-1 driven promoters, were able to activate FiRE; also recorded: do not activate”.

Regarding `CN(C)CCOc1ccc(/C(=C(/CCCl)c2ccccc2)c2ccccc2)cc1` [toremifene], the “growth behavior of cells” value with MCF-7 cells is “aided the cells in maintaining their normal growth behavior”. Also, in test [4], the syndecan-1 expression result was “reverse their lowered syndecan expression; also recorded: restored syndecan-1 expression to levels close to that found in cells not exposed to estrogen”. `COC[C@@H]([C@H](O)[C@H](O)C(=O)NCC[C@H](C)c1nc(/C=C/C[C@@H]2O[C@]3(C[C@@H](O)[C@@H]2C)O[C@H]([C@H](C[C@H](O)[C@H](C)[C@H](O)[C@H](C)/C=C(C)/C(C)=C/C=C/C(C)=C\C#N)OC)[C@H](OP(=O)(O)O)C3(C)C)co1)N(C)C` [calyculin A]: the “FiRE activation (CAT assay)” value in test [3] was “none of the other compounds known to induce immediate early genes fos and jun and AP-1 driven promoters, were able to activate FiRE”. On to `[O]=[V]([O-])([O-])[O-]` [orthovanadate], for which the “FiRE activation (CAT assay)” value in test [3] is listed as “resulted in activation of FiRE”.

As for `C=C1[C@@H](O)[C@@H]2O[C@]3(CC[C@H](/C=C/[C@@H](C)[C@@H]4CC(C)=C[C@@]5(O[C@H](C[C@@](C)(O)C(=O)O)CC[C@H]5O)O4)O3)CC[C@H]2O[C@@H]1[C@@H](O)C[C@H](C)[C@H]1O[C@@]2(CCCCO2)CC[C@H]1C` [okadaic acid], the “FiRE activation (CAT assay)” value in test [3] was “none of the other compounds known to induce immediate early genes fos and jun and AP-1 driven promoters, were able to activate FiRE”. Take “EGF: epidermal growth factor (NSDSECPLSHDGYCLHDGVCMYIEALDKYACNCVVGYIGERCQYRDLKWWELR; Epidermal growth factor; UniProt P01133 971-1023, looked up)”: the “FiRE enhancer activation” value in test [1] is listed as “no significant enhancer activation; also recorded: no effect on enhancer activity”. Besides, the “DNA synthesis / cell proliferation” value with 3T3NIH cells is on record as “significant increase in DNA synthesis; also recorded: enhanced cell proliferation to a similar extent as FGF-2”.

The record behind these values is patent publication US6492344B1, “Syndecan enhancer element and syndecan stimulation of cellular differentiation” (Biotie Therapies Corp., priority 1993, dated 2002).
